The text below walks through data of PubChem BioAssay AID687022 (Broad Institute, 2013).

The target of this experiment is Fibroblast growth factor 22 (Homo sapiens) (UniProt Q9HCT0). Put plainly: binders of human FGF22 protein, dose response, FGF22 synaptogenesis inhibitor project, biophysical, thermal shift, cherry-pick (AID 687022). Particulars: recombinant FGF22 thermal shift, SYPRO orange melting.

Active and inactive are the calls of the source.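 Rule for the calls: active = Fitted curve of melting temperature shift crosses the 1.0 threshold at or below the sample's highest valid tested concentration; inconclusive = Flat fit with activity 30 to 70, or invalid fit; inactive = Opposite direction, flat within 30, or no crossing.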 Bounds are passed on as bounds.

Fibroblast growth factor 22 (Homo sapiens), sequence (Q9HCT0 whole entry, looked up): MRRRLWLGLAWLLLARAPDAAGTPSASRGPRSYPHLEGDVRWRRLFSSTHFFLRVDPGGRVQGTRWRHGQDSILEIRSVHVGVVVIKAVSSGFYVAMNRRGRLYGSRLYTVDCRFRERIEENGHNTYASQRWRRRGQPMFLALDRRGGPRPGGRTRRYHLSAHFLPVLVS

With `O=C(N/N=C/c1c(O)ccc2ccccc12)c1[nH]ncc1Br`, the AbsAC1 (concentration giving Tm-shift threshold 1.0) is 23.7 µM.

Regarding `O=C(Nc1nc(-c2ccccn2)cs1)c1cc2ccccc2o1`, the AbsAC1 (concentration giving Tm-shift threshold 1.0) was 16.1 µM.

Consider `COc1ccc2c(/C=N/NS(=O)(=O)c3ccc(C)cc3)c[nH]c2c1`, for which the AbsAC1 (concentration giving Tm-shift threshold 1.0) is 9.87 µM.

Consider `CCN(CC)c1ccc(/C=N/NC(=O)c2c[nH]c3ccccc23)cc1`, for which the AbsAC1 (concentration giving Tm-shift threshold 1.0) is 26.8 µM.

In the case of `Cc1ccc(OCCCC(=O)Nc2ccc(S(=O)(=O)N3CCOCC3)cc2)cc1`, the AbsAC1 (concentration giving Tm-shift threshold 1.0) was 2.45 µM.

Consider `O=C(N/N=C\c1c[nH]c2ccccc12)c1ccc(O)cc1`, for which the AbsAC1 (concentration giving Tm-shift threshold 1.0) is 1.85 µM.

`Cc1nc2c(C)cccc2cc1C(=O)N/N=C/c1ccc(O)cc1`: the AbsAC1 (concentration giving Tm-shift threshold 1.0) was 14.8 µM.

For the compound `COC(=O)c1cc(OC)c(OC)cc1NC(=O)c1ccccc1C`, the AbsAC1 (concentration giving Tm-shift threshold 1.0) is 16.7 µM.

For the compound `COc1ccc(N2C(=O)C(CC(=O)Nc3ccccc3)N(Cc3ccc4c(c3)OCO4)C2=O)cc1` (stereo unspecified), the AbsAC1 (concentration giving Tm-shift threshold 1.0) was 6.04 µM.

Turning to `COc1cccc(S(=O)(=O)N2C[C@@H](O)COC[C@@H]3O[C@@H](CC(=O)Nc4ccccc4)CC[C@H]32)c1`, the AbsAC1 (concentration giving Tm-shift threshold 1.0) was 3.38 µM.

As for `Oc1ccc(-c2csc(Nc3ccccn3)n2)c(O)c1`, the AbsAC1 (concentration giving Tm-shift threshold 1.0) was 5.13 µM.

As for `O=C(N/N=C/c1c[nH]c2ccccc12)C1CC1c1ccccc1` (stereo unspecified), the AbsAC1 (concentration giving Tm-shift threshold 1.0) was 14 µM.

On to `CCc1ccc(N2CC(C(=O)OCC(=O)Nc3ccc(C(C)=O)cc3)CC2=O)cc1` (stereo unspecified), for which the AbsAC1 (concentration giving Tm-shift threshold 1.0) was 17.7 µM.

With `O=C(C[C@H]1CC[C@@H]2[C@H](COC[C@H](O)CN2S(=O)(=O)c2cccc(F)c2)O1)Nc1ccccc1`, the AbsAC1 (concentration giving Tm-shift threshold 1.0) was 3.48 µM.

Take `COc1cccc(C(=O)Nc2cccc(NC(=O)c3cccs3)c2)c1`: the AbsAC1 (concentration giving Tm-shift threshold 1.0) is 1.72 µM.

In the case of `Cc1noc(C)c1NC(=O)N[C@@H]1C=C[C@H](CC(=O)Nc2ccc(-c3ccccc3)cc2)O[C@@H]1CO`, the AbsAC1 (concentration giving Tm-shift threshold 1.0) is 5.28 µM.

As for `COc1ccc(-c2ccc([C@H]3[C@H]4CN(C(=O)c5ccc6c(c5)OCO6)CCCCN4[C@H]3CO)cc2)cc1`, the AbsAC1 (concentration giving Tm-shift threshold 1.0) is 15.9 µM.

Regarding `Oc1ccc(-c2nc3ccccc3s2)c(O)c1`, the AbsAC1 (concentration giving Tm-shift threshold 1.0) was 5.15 µM.

For `CCc1nnc(NS(=O)(=O)c2ccc(Nc3ccc([N+](=O)[O-])c4nonc34)cc2)s1`, the AbsAC1 (concentration giving Tm-shift threshold 1.0) was > 5 µM (inactive).

For `O=C(C[C@H]1CC[C@H]2[C@@H](COC[C@@H](O)CN2S(=O)(=O)c2cccc(F)c2)O1)Nc1ccc(-c2ccccc2)cc1`, the AbsAC1 (concentration giving Tm-shift threshold 1.0) was > 38 µM (inactive).

On to `O=c1oc(-c2ccc(O)c(O)c2)cc2cc(O)cc(O)c12`, for which the AbsAC1 (concentration giving Tm-shift threshold 1.0) is 4.66 µM.

Consider `O=C(O)c1ccc(Cl)c(S(=O)(=O)Nc2ccc(S(=O)(=O)N3CCCC3)cc2)c1`, for which the AbsAC1 (concentration giving Tm-shift threshold 1.0) is 14.1 µM.

As for `CC(C)CC(=O)n1sc(NC(=O)c2ccccc2)nc1=O`, the AbsAC1 (concentration giving Tm-shift threshold 1.0) is 6.61 µM.

On to `O=C(C[C@H]1CC[C@H]2[C@@H](COC[C@H](O)CN2Cc2ccccc2)O1)NCCc1ccccc1`, for which the AbsAC1 (concentration giving Tm-shift threshold 1.0) is > 38 µM (inactive).

As for `COc1ccc(-c2nc(-c3ccc(O)cc3O)cs2)cc1OC`, the AbsAC1 (concentration giving Tm-shift threshold 1.0) is 5.56 µM.

As for `O=C(Nc1ccc2c(c1)OCO2)c1ccc(NC2CC2)c([N+](=O)[O-])c1`, the AbsAC1 (concentration giving Tm-shift threshold 1.0) was 17.8 µM.

For `N#Cc1c(-c2ccccc2)nc(-c2ccncc2)[nH]c1=O`, the AbsAC1 (concentration giving Tm-shift threshold 1.0) was 30.3 µM.

Regarding `O=S(=O)(Nc1cc(Cl)ccc1-n1cncn1)c1ccc(F)cc1`, the AbsAC1 (concentration giving Tm-shift threshold 1.0) was 15.2 µM.

For the compound `O=C1C(=O)C(c2ccccc2)C(=O)C1c1ccccc1` (stereo unspecified), the AbsAC1 (concentration giving Tm-shift threshold 1.0) is 10.7 µM.

Turning to `COc1ccc(C(=O)Nc2nc(CC(=O)NCCc3ccccc3)cs2)cc1`, the AbsAC1 (concentration giving Tm-shift threshold 1.0) was 11.3 µM.

On to `Cc1ccc(CCNc2ncnc(Cl)c2N)cc1`, for which the AbsAC1 (concentration giving Tm-shift threshold 1.0) is 6.55 µM.

Consider `Cc1noc(NS(=O)(=O)c2ccc(NC(=O)c3cccc(S(=O)(=O)N(C)c4ccccc4)c3)cc2)c1C`, for which the AbsAC1 (concentration giving Tm-shift threshold 1.0) was 4.7 µM.

For the compound `Cc1cccc(NC(=O)c2ccc(-c3ccccc3[N+](=O)[O-])o2)c1`, the AbsAC1 (concentration giving Tm-shift threshold 1.0) is > 38 µM (inactive).

As to `CC(C)CC(=O)Nc1ccc(C(=O)CN2C(=O)NC3(CCOc4ccccc43)C2=O)cc1` (stereo unspecified), the AbsAC1 (concentration giving Tm-shift threshold 1.0) was 6.42 µM.

Turning to `Cc1ccc(NC(=O)Nc2cccnc2)cc1`, the AbsAC1 (concentration giving Tm-shift threshold 1.0) was 27.1 µM.

In the case of `COc1cc(NC(=O)c2cnc(N)s2)cc(C(=O)Nc2cccc(C(F)(F)F)c2)c1`, the AbsAC1 (concentration giving Tm-shift threshold 1.0) is 2.42 µM.

As to `Cc1ccn(-c2ccc(NC(=O)c3cccs3)cc2)n1`, the AbsAC1 (concentration giving Tm-shift threshold 1.0) is 3.72 µM.

For the compound `O=[N+]([O-])c1ccc(Nc2cccc(F)c2)nc1`, the AbsAC1 (concentration giving Tm-shift threshold 1.0) is 3.78 µM.

As to `N#Cc1cccc(NC(=O)c2ccc(S(=O)(=O)N3CCOCC3)cc2)c1`, the AbsAC1 (concentration giving Tm-shift threshold 1.0) is 4 µM.

As to `Cc1[nH]c2ccccc2c1N=Nc1cc(C(=O)O)cc(C(=O)O)c1`, the AbsAC1 (concentration giving Tm-shift threshold 1.0) is 19.9 µM.

`CCN(CC)S(=O)(=O)c1ccc(N/N=C(\C)c2ccc(OC)cc2O)nc1`: the AbsAC1 (concentration giving Tm-shift threshold 1.0) was 14 µM.

On to `COc1ccc(NS(=O)(=O)c2ccc(Cl)c(N)c2)cc1Br`, for which the AbsAC1 (concentration giving Tm-shift threshold 1.0) was 4.09 µM.

With `O=C(NNC(=O)C1CCN(S(=O)(=O)c2ccccc2C(F)(F)F)CC1)c1ccccc1O`, the AbsAC1 (concentration giving Tm-shift threshold 1.0) is 10.4 µM.

As to `Cc1nc2ccccc2c2oc(C(=O)NCc3ccc4c(c3)OCO4)cc12`, the AbsAC1 (concentration giving Tm-shift threshold 1.0) is 2.57 µM.

As for `O=C(O)/C=C/c1cccc(NC(=O)Nc2ccc([N+](=O)[O-])cc2)c1`, the AbsAC1 (concentration giving Tm-shift threshold 1.0) is 4.49 µM.

Turning to `COc1ccc(NC(=O)N[C@H]2CC[C@@H](CCn3cc(-c4ccc(OC)cc4)nn3)O[C@@H]2CO)cc1`, the AbsAC1 (concentration giving Tm-shift threshold 1.0) is > 42 µM (inactive).

As to `CC(=O)c1ccc(OCCCC(=O)Nc2ccc(S(=O)(=O)N3CCOCC3)cc2)cc1`, the AbsAC1 (concentration giving Tm-shift threshold 1.0) is > 38 µM (inactive).

Take `CCOC(=O)c1ccc(S(=O)(=O)Nc2cc(C(=O)O)ccc2Cl)cc1`: the AbsAC1 (concentration giving Tm-shift threshold 1.0) is 26.2 µM.

Regarding `CCN1C(=O)C(CC(=O)Nc2ccc(OC)cc2)N(Cc2ccc3c(c2)OCO3)C1=S` (stereo unspecified), the AbsAC1 (concentration giving Tm-shift threshold 1.0) was 4.05 µM.

In the case of `COc1ccc(/C=N/NC(=O)c2ccc(NS(=O)(=O)c3cccs3)cc2)cc1`, the AbsAC1 (concentration giving Tm-shift threshold 1.0) was 7.28 µM.

For `Cc1cc(C)cc(NS(=O)(=O)c2cc3[nH]c(=O)c(=O)[nH]c3cc2C)c1`, the AbsAC1 (concentration giving Tm-shift threshold 1.0) was 10.2 µM.

Turning to `O=C(NN=Cc1ccc(O)cc1O)c1ccccc1NS(=O)(=O)c1cccs1`, the AbsAC1 (concentration giving Tm-shift threshold 1.0) is 32.7 µM.

In the case of `O=C(Cc1n[nH]c(=O)[nH]c1=O)N/N=C/c1c(O)ccc2ccccc12`, the AbsAC1 (concentration giving Tm-shift threshold 1.0) was 9.89 µM.

For `COc1ccc(CN2C(=O)N(c3ccc(OC)cc3)C(=O)C2CC(=O)Nc2ccccc2)cc1` (stereo unspecified), the AbsAC1 (concentration giving Tm-shift threshold 1.0) is 6.06 µM.

In the case of `CCN1C/C(=C/c2cccs2)c2nc3ccccc3c(C(=O)O)c2C1`, the AbsAC1 (concentration giving Tm-shift threshold 1.0) was 3.02 µM.

With `O=C(Nc1ccc(F)cc1)N[C@@H]1CC[C@H](CCn2cc(-c3ccccc3F)nn2)O[C@H]1CO`, the AbsAC1 (concentration giving Tm-shift threshold 1.0) is 10.3 µM.
